Measurements taken from patent US20140288039A1, “LI[…] CHAIN TE[…] FOR ORAL […]” (Lipocine Inc., priority 2009, published 2014).

Experiments:
[1] = Solubility of testosterone esters in lipophilic additives (castor oil, oleic acid, glyceryl mono and di linoleate), HPLC; conditions: room temperature, equilibrium, compared to the Undecanoate (T11) ester, values only in FIGS. 1-3
[2] = background statement, cited from earlier work
[3] = single daily dose oral administration

CCCCCCCCCCCCCC(=O)O[C@H]1CC[C@H]2[C@@H]3CCC4=CC(=O)CC[C@]4(C)[C@H]3CC[C@]12C [Testosterone Tetradecoate (T14), Testosterone Tetradecoate]
solubility in lipophilic additives (in words) [1]: unexpectedly disproportionate lower solubility

CCCCCCCCCCCCC(=O)O[C@H]1CC[C@H]2[C@@H]3CCC4=CC(=O)CC[C@]4(C)[C@H]3CC[C@]12C [Testosterone Tridecoate (T13), Testosterone Tridecoate]
solubility in lipophilic additives (in words) [1]: unexpectedly disproportionate lower solubility

CCCCCCCCCCC(=O)O[C@H]1CC[C@H]2[C@@H]3CCC4=CC(=O)CC[C@]4(C)[C@H]3CC[C@]12C [Testosterone Undecanoate (T11), Testosterone Undecanoate]
percentage of patients in a group whose serum T remains in the hypogonadal range for a large proportion of the dosing period [2, 3]: > 60%
time serum T levels remain in the hypogonadal range (<300 ng/dL) in a 24-hour period [2, 3]: > 7 h

C[C@]12CCC(=O)C=C1CC[C@@H]1[C@@H]2CC[C@@]2(C)[C@H]1CC[C@]2(C)O [methyl testosterone]
reported adverse effects (in words) ([2]; oral use): liver damage including cholestasis, peliosis hepatitis, nodular regenerative hyperplasia, and primary hepatic tumors
